Here are results for four molecules from patent US10725001B2, “Liquid crystal composition, pH sensing device using the same, and pH sensing device kit using the same” (Tamkang University, priority 2016, dated 2020).

Molecules are shown by their SMILES.

The nature of this data set: Acid dissociation constants (pKa) of the dopant compounds. Format: physicochemical. Conditions: read-out: acid dissociation constant (pKa).
As to `CCCCCCCCCCCCOc1ccc(-c2ccc(C(=O)O)cc2)cc1` [Formula (I-4)], the pKa (commonly the pH at which an ionisable group is half protonated) worked out at 8.74. The figure for `CCCCCCc1ccc(-c2ccc(C(=O)O)cc2)cc1` [Formula (I-1)] is 7.68. The figure for `CCCCCCCCOc1ccc(-c2ccc(C(=O)O)cc2)cc1` [Formula (I-2)] is 7.66; for `CCCCCCCCCCOc1ccc(-c2ccc(C(=O)O)cc2)cc1` [Formula (I-3)] it is 9.77.
